# Experimental data published in patent publication US20240251788A1, “HERBICIDE/SAFENER COMBINATION BASED ON SAFENERS FROM THE CLASS OF SUBSTITUTED [(1,5-DIPHENYL-1H-1,2,4-TRIAZOL-3-YL)OXY]ACETIC ACIDS AND THEIR SALTS” (Bayer Aktiengesellschaft, priority 2021, published 2024).
# Tests used:
# [1] = system: summer wheat crop plant (TRZAS; cv. Triso); assay: Reduction in herbicide damage to summer wheat by safener, greenhouse post-emergence application, visual scoring; type: in vivo; set-up: key to Reduction in the damage by safener (difference): difference in % visual damage (0-100% scale vs untreated) due to safener
# Protocol: (§1) The seeds of the crop plants to be treated are laid out in soil in woodfiber pots (diameter ˜ 7 cm), covered with soil and grown in a greenhouse under good conditions for germination and growth. The trial plants were treated at the early leaf stage (BBCH10-BBCH12).
# The herbicides used (component B) were used in the following formulations: • B2.81: WP • B2.85: WP • B2.92: WP • Cinmethylin: EC • Clomazone: WP • Ethofumesate: WP • Flufenacet: SC • Pinoxaden: WP • Saflufenacil: WP • Bicyclopyrone: WP • Picloram: WP • Metazachlor: SC • Flumioxazin: WP • Glyphosate potassium salt: SL • Topramezone: WP
# (§2) The dose of the respective herbicides was chosen here such that it causes an average degree of visually apparent damage (min. 20%, max. 75%) compared to untreated crop plants at the evaluation time on a control group of crop plants without safener treatment that were included in the same trial.
# (§3) In the respective herbicide/safener combinations, the safeners (component A) in the form of wettable powders (WP) were added in the dose specified; in these cases, herbicide and safener are thus applied as a mixture.
# (§4) Application was effected in each case on to the above-ground parts of the plant, at a water application rate corresponding to 300 l/ha and with addition of wetting agent (Mero, 1.5 l/h a).
# In the applications that contained pinoxaden, bicyclopyrone or topramezone, the herbicidal effect was enhanced by additionally adding ammonium sulfate (2 kg/ha).
# (§5) After application, the plants were cultivated under good growth conditions in a greenhouse. On account of the different mechanisms of action of the herbicides used, the damaging effect of the herbicides was fully manifested at different times depending on the herbicide, and this in turn forms the basis for assessment of the safener action in the mixtures. Therefore, the damage was scored visually, depending on the herbicide/mixture, between 11 and 21 days after application.
# (§6) The damage effect was assessed visually on a scale of 0-100% by comparison with untreated control plants, and averaged over 2 repeats per treatment.
# [2] = system: summer barley crop plant (HORVS: cv. Quench); assay: Reduction in herbicide damage to summer barley by safener, greenhouse post-emergence application, visual scoring; type: in vivo; set-up: key to Reduction in the damage by safener (difference): difference in % visual damage, 0-100% scale vs untreated plants
# Protocol: as §1
# The herbicides used (component B) were used in the following formulations: • B2.81: WP • B2.85: WP • B2.92: WP • Clomazone: WP • Ethofumesate: WP • Flufenacet: SC • Fluroxypyr: EC • Saflufenacil: WP • Thiencarbazone-methyl: WP • Iodosulfuron-methyl-sodium: WP • Bifenox: WP • Glyphosate potassium salt: SL • Topramezone: WP
# as §2, §3, §4
# In the applications that contained pinoxaden or topramezone, the herbicidal effect was enhanced by additionally adding ammonium sulfate (2 kg/ha).
# as §5, §6
# [3] = summer wheat (TRZAS), herbicide B1.8 (pinoxaden) 200 g a.i./ha + safener 100 g a.i./ha
# [4] = summer wheat (TRZAS), herbicide B2.81 15 g a.i./ha + safener 100 g a.i./ha
# [5] = summer wheat (TRZAS), herbicide B2.85 5 g a.i./ha + safener 100 g a.i./ha
# [6] = summer wheat (TRZAS), herbicide B2.92 5 g a.i./ha + safener 100 g a.i./ha
# [7] = summer wheat (TRZAS), herbicide B5.14 (clomazone) 200 g a.i./ha + safener 100 g a.i./ha
# [8] = summer wheat (TRZAS), herbicide B5.21 (ethofumesate) 2000 g a.i./ha + safener 100 g a.i./ha
# [9] = summer wheat (TRZAS), herbicide B9.10 (saflufenacil) 10 g a.i./ha + safener 100 g a.i./ha
# [10] = summer wheat (TRZAS), herbicide B9.10 (saflufenacil) 20 g a.i./ha + safener 100 g a.i./ha
# [11] = summer barley (HORVS), herbicide B2.68 (thiencarbazone-methyl) 30 g a.i./ha + safener 100 g a.i./ha
# [12] = summer barley (HORVS), herbicide B2.81 15 g a.i./ha + safener 100 g a.i./ha
# [13] = summer barley (HORVS), herbicide B2.85 5 g a.i./ha + safener 100 g a.i./ha
# [14] = summer barley (HORVS), herbicide B2.92 5 g a.i./ha + safener 100 g a.i./ha
# [15] = summer barley (HORVS), herbicide B5.14 (clomazone) 200 g a.i./ha + safener 100 g a.i./ha
# [16] = summer barley (HORVS), herbicide B5.21 (ethofumesate) 2000 g a.i./ha + safener 100 g a.i./ha
# [17] = summer barley (HORVS), herbicide B6.4 (fluroxypyr) 500 g a.i./ha + safener 100 g a.i./ha
# [18] = summer barley (HORVS), herbicide B9.10 (saflufenacil) 20 g a.i./ha + safener 100 g a.i./ha
# [19] = summer wheat (TRZAS), herbicide dose 400 g a.i./ha, without safener
molecule,measurement,setting,value
"Cc1ccccc1CO[C@@H]1C[C@@]2(C(C)C)CC[C@]1(C)O2 (racemic) [Compound B5.13, cinmethylin, reference compound]",Damage to the plant by the herbicide (in %),"[1]; summer wheat (TRZAS), herbicide dose 500 g a.i./ha, without safener",25%
same,Damage to the plant by the herbicide (in %),"[1]; summer wheat (TRZAS), herbicide dose 1000 g a.i./ha, without safener",25%
"C=C[C@]1(C(=O)N[C@H]2CO[C@@H](C(=O)OC)C2)CC(c2cc(F)cc(F)c2)=NO1 (relative stereo) [Compound B2.81, methyl (2R*,4R*)-4-[[(5S)-3-(3,5-difluorophenyl)-5-vinyl-4H-isoxazole-5-carbonyl]amino]tetrahydrofuran-2-carboxylate]",Damage to the plant by the herbicide (in %),[1]; in vivo,70%
same,Damage to the plant by the herbicide (in %),[2]; in vivo,70%
"COC(=O)COc1nc(-c2ccc(Cl)cc2F)n(-c2ccc(Cl)cc2F)n1 [Compound A1, methyl {[1,5-bis(4-chloro-2-fluorophenyl)-1H-1,2,4-triazol-3-yl]oxy}acetate]",Reduction in the damage by safener (difference),[1]; [3],25
same,Reduction in the damage by safener (in %),[1]; [3],71%
same,Reduction in the damage by safener (difference),[1]; [4],70
same,Reduction in the damage by safener (in %),[1]; [4],100%
same,Reduction in the damage by safener (difference),[1]; [5],60
same,Reduction in the damage by safener (in %),[1]; [5],100%
same,Reduction in the damage by safener (difference),[1]; [6],60
same,Reduction in the damage by safener (in %),[1]; [6],100%
same,Reduction in the damage by safener (difference),[1]; [7],20
same,Reduction in the damage by safener (in %),[1]; [7],50%
same,Reduction in the damage by safener (difference),[1]; [8],70
same,Reduction in the damage by safener (in %),[1]; [8],100%
same,Reduction in the damage by safener (difference),[1]; [9],15
same,Reduction in the damage by safener (in %),[1]; [9],43%
same,Reduction in the damage by safener (difference),[1]; [10],15
same,Reduction in the damage by safener (in %),[1]; [10],38%
same,Reduction in the damage by safener (difference),[2]; [11],30
same,Reduction in the damage by safener (in %),[2]; [11],100%
same,Reduction in the damage by safener (difference),[2]; [12],70
same,Reduction in the damage by safener (in %),[2]; [12],100%
same,Reduction in the damage by safener (difference),[2]; [13],50
same,Reduction in the damage by safener (in %),[2]; [13],83%
same,Reduction in the damage by safener (difference),[2]; [14],65
same,Reduction in the damage by safener (in %),[2]; [14],100%
same,Reduction in the damage by safener (difference),[2]; [15],30
same,Reduction in the damage by safener (in %),[2]; [15],75%
same,Reduction in the damage by safener (difference),[2]; [16],60
same,Reduction in the damage by safener (in %),[2]; [16],100%
same,Reduction in the damage by safener (difference),[2]; [17],20
same,Reduction in the damage by safener (in %),[2]; [17],100%
same,Reduction in the damage by safener (difference),[2]; [18],20
same,Reduction in the damage by safener (in %),[2]; [18],50%
"CCc1cc(C)cc(CC)c1-c1c(OC(=O)C(C)(C)C)n2n(c1=O)CCOCC2 [Compound B1.8, pinoxaden, reference compound]",Damage to the plant by the herbicide (in %),"[1]; summer wheat (TRZAS), herbicide dose 200 g a.i./ha, without safener",35%
"COc1nc(C)nc(NC(=O)NS(=O)(=O)c2cc(I)ccc2C(=O)O)n1 [Compound B2.34, iodosulfuron, reference compound]",Damage to the plant by the herbicide (in %),[2]; in vivo,45%
"Cc1cccc(C)c1N(Cn1cccn1)C(=O)CCl [Compound B2.38, metazachlor, reference compound]",Damage to the plant by the herbicide (in %),"[1]; summer wheat (TRZAS), herbicide dose 4000 g a.i./ha, without safener",40%
"COc1nn(C(=O)NS(=O)(=O)c2c(C(=O)O)csc2C)c(=O)n1C [Compound B2.68, thiencarbazone, reference compound]",Damage to the plant by the herbicide (in %),"[2]; summer barley (HORVS), herbicide dose 30 g a.i./ha, without safener",30%
"C#CCN1C(=O)COc2cc(F)c(N3C(=O)C4=C(CCCC4)C3=O)cc21 [Compound B5.26, flumioxazin, reference compound]",Damage to the plant by the herbicide (in %),"[1]; summer wheat (TRZAS), herbicide dose 20 g a.i./ha, without safener",60%
"Nc1c(Cl)c(F)nc(OCC(=O)O)c1Cl [Compound B6.4, fluroxypyr, reference compound]",Damage to the plant by the herbicide (in %),[2]; in vivo,20%
"Nc1c(Cl)c(Cl)nc(C(=O)O)c1Cl [Compound B6.5, picloram, reference compound]",Damage to the plant by the herbicide (in %),[1]; [19],25%
"COC(=O)c1cc(Oc2ccc(Cl)cc2Cl)ccc1[N+](=O)[O-] [Compound B8.6, bifenox, reference compound]",Damage to the plant by the herbicide (in %),"[2]; summer barley (HORVS), herbicide dose 600 g a.i./ha, without safener",40%
"bicyclopyrone [Compound B1.2, reference compound]",Damage to the plant by the herbicide (in %),[1]; [19],60%
